# Results: patent publication US20260374766A1, “METHODS FOR TREATING CANCER” (Antares Therapeutics, Inc., priority 2022, published 2026)
# Like-named read-outs stand apart in the source and are kept apart here.
# Columns and labels:
# H1299 p53 R273H = test: Cell Proliferation Assay (CellTiter-Glo, CTG), H1299 p53 R273H (NClH1299-inducible p53 R273H); type: cell-based; conditions: Homo sapiens, NCI-H1299, 120 h, NClH1299-inducible p53 R273H cells, 5 days
# How it was run: (§1)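 NClH1299 lines stably transduced with Tet-inducible p53 Y220C or R273H, plus NUGC3, were treated with compound for 5 days at 250-500 cells/well. IC50 derived from CellTiter-Glo luminescent signal after 10 min room-temperature incubation.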
# p53 Y220C = p53 Y220C (Homo sapiens, UniProt P04637, Y220C); test: Luciferase Reporter Assay (Luc), p53 response element, NClH1299 cells with inducible p53 Y220C; type: cell-based; conditions: 6 hour; for AC50: read-out: Luc P53 Y220C AC50
# How it was run: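 H1299 cells induced with 0.5 ug/mL doxycycline for 24 hours, then exposed to compound for 6 hours. p53 response-element luciferase read by One-Glo luminescence after 5 min shaking at room temperature.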
# H1299 p53 Y220C = test: Cell Proliferation Assay (CellTiter-Glo, CTG), H1299 p53 Y220C (NClH1299-inducible p53 Y220C); type: cell-based; conditions: Homo sapiens, NCI-H1299, 120 h, NClH1299-inducible p53 Y220C cells, 5 days
# How it was run: as §1
# [1] = molecular target: T1, p53 Y220C mutant protein (amino acid residues 94-293) (Homo sapiens, UniProt P04637, Y220C); test: Surface Plasmon Resonance (SPR) assay, Kd_kinetic; type: binding; conditions: SPR; p53 Y220C; read-out: SPR P53 Y220C KD kinetic
# T1 construct: p53 Y220C mutant protein (amino acid residues 94-293)
# T1 sequence (P04637 94-293, stated change not applied): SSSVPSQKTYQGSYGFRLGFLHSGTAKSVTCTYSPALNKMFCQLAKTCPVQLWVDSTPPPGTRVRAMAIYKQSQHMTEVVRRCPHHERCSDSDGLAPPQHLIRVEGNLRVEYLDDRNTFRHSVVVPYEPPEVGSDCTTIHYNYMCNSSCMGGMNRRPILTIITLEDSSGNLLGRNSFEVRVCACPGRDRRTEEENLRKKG
# How it was run: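 Biacore 8K SPR; 16 or 20 °C; Tris 50 mM pH 7.5, NaCl 100 mM, DTT 1 mM, Brij35 0.01%, Tween-20 0.05%, DMSO 1%. Kd_kinetic by 1:1 fit.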
# NUGC3 p53 Y220C = test: Cell Proliferation Assay (CellTiter-Glo, CTG), NUGC3 p53 Y220C; type: cell-based; conditions: Homo sapiens, NUGC-3, 120 h, NUGC3 cells, 5 days
# How it was run: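 Tet-One inducible p53 Y220C or R273H constructs were stably introduced into NCI-H1299 by lentiviral transduction; NUGC3 was used as is. Cells (250-500 per well) were exposed to compound for 5 days, then CellTiter-Glo was added for 10 min at room temperature and IC50 was calculated from luminescence.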
# [2] = luciferase reporter, NClH1299 inducible p53 Y220C
# [3] = NClH1299 cells with inducible p53 Y220C
# [4] = NClH1299 cells with inducible p53 Y220C, 10 uM tool compound as positive control
SMILES,IC50 (H1299 p53 R273H; CellTiter-Glo),AC50 (p53 Y220C; [2]),Emax (p53 Y220C; [2]),IC50 (H1299 p53 Y220C; CellTiter-Glo),Kd [1],IC50 (NUGC3 p53 Y220C; CellTiter-Glo),IC50 (H1299 p53 R273H),AC50 (p53 Y220C; [3]),Emax (p53 Y220C; [4]),IC50 (H1299 p53 Y220C),IC50 (NUGC3 p53 Y220C)
CN1CC[C@@H](Nc2cccn3c(SC(F)(F)F)c(C#CCNc4ccc(P(C)(C)=O)c5ccoc45)cc23)[C@@H](F)C1 [Example 452],< 5 µM,< 750 nM,> 90%,< 750 nM,< 10 nM,< 750 nM,,,,,
CN1CC[C@@H](Nc2cccn3c(SC(F)(F)F)c(C#CCNc4ccc(C(=O)NC[C@@H]5CCO5)cc4)cc23)[C@@H](F)C1 [Example 453],≥ 10 µM,< 750 nM,> 90%,< 750 nM,< 10 nM,< 750 nM,,,,,
"CNC(=O)c1ccc(NCC#Cc2cc3c(N[C@@H]4CCNC[C@@H]4F)cccn3c2SC(F)(F)F)c(O)c1 [Example 455, 4-{[3-(8-{[(3S,4R)-3-fluoropiperidin-4-yl]amino}-3-[(trifluoromethyl)sulfanyl]indolizin-2-yl)prop-2-yn-1-yl]amino}-3-hydroxy-N-methylbenzamide]",,,,,< 10 nM,,5 to 8 µM,< 750 nM,80 to 90%,< 750 nM,< 750 nM
COc1ccc(C(=O)N[C@@H](C)[C@H](C)O)cc1NCC#Cc1cc2c(N[C@@H]3CCN(C)C[C@@H]3F)cccn2c1SC(F)(F)F [Example 456],,,,,< 10 nM,,≥ 10 µM,< 750 nM,> 90%,< 750 nM,< 750 nM
CN1CC[C@@H](Nc2cccn3c(SC(F)(F)F)c(C#CCNc4ccc(C(=O)NCC(C)(C)O)cc4)cc23)[C@@H](F)C1 [Example 457],,,,,< 10 nM,,8 to 10 µM,< 750 nM,> 90%,< 750 nM,< 750 nM
CN1CC[C@@H](Nc2cccn3c(SC(F)(F)F)c(C#CCNc4ccc(C(=O)NC[C@H](O)CO)cc4)cc23)[C@@H](F)C1 [Example 460],,,,,< 10 nM,,≥ 10 µM,< 750 nM,> 90%,< 750 nM,< 750 nM
COc1ccc(C(=O)NC[C@@H](O)CO)cc1NCC#Cc1cc2c(N[C@@H]3CCN(C)C[C@@H]3F)cccn2c1SC(F)(F)F [Example 462],,,,,< 10 nM,,≥ 10 µM,< 750 nM,> 90%,< 750 nM,< 750 nM
CNC(=O)c1ccc(OC2COC2)c(NCC#Cc2cc3c(N[C@@H]4CCNC[C@@H]4F)cccn3c2SC(F)(F)F)n1 [Example 463],,,,,< 10 nM,,≥ 10 µM,< 750 nM,> 90%,< 750 nM,< 750 nM
COc1cc(C(N)=O)ccc1NCC#Cc1cc2c(N[C@@H]3CCN(C)C[C@@H]3F)cccn2c1SC(F)(F)F [Example 464],,,,,< 10 nM,,≥ 10 µM,< 750 nM,> 90%,< 750 nM,< 750 nM
CN1CC[C@@H](Nc2cccn3c(SC(F)(F)F)c(C#CCNc4ccc(C(=O)N[C@H]5C[C@@H](O)C5)cc4)cc23)[C@@H](F)C1 [Example 465],,,,,< 10 nM,,≥ 10 µM,< 750 nM,> 90%,< 750 nM,< 750 nM
"CNC(=O)c1ccc(NCC#Cc2cc3c(N[C@@H]4CCN(C)C[C@@H]4F)cccn3c2SC(F)(F)F)c(Cl)c1 [Example 466, 3-chloro-4-{[3-(8-{[(3S,4R)-3-fluoro-1-methylpiperidin-4-yl]amino}-3-[(trifluoromethyl)sulfanyl]indolizin-2-yl)prop-2-yn-1-yl]amino}-N-methylbenzamide]",,,,,< 10 nM,,≥ 10 µM,< 750 nM,80 to 90%,< 750 nM,< 750 nM
COc1ccc(C(=O)N[C@H](C)[C@H](C)O)cc1NCC#Cc1cc2c(N[C@@H]3CCN(C)C[C@@H]3F)cccn2c1SC(F)(F)F [Example 468],,,,,< 10 nM,,8 to 10 µM,< 750 nM,> 90%,< 750 nM,< 750 nM
"CNC(=O)c1ccc(NCC#Cc2cc3c(N[C@@H]4CCN(C)C[C@@H]4F)cccn3c2SC(F)(F)F)c(O)c1 [Example 469, 4-{[3-(8-{[(3S,4R)-3-fluoro-1-methylpiperidin-4-yl]amino}-3-[(trifluoromethyl)sulfanyl]indolizin-2-yl)prop-2-yn-1-yl]amino}-3-hydroxy-N-methylbenzamide]",,,,,< 10 nM,,5 to 8 µM,< 750 nM,> 90%,< 750 nM,< 750 nM
"[2H]C([2H])([2H])Oc1ccc(C(=O)NC)cc1NCC#Cc1cc2c(N[C@@H]3CCN(C)C[C@@H]3F)nccn2c1SC(F)(F)F [Example 470, 3-((3-(1-(((3S,4R)-3-fluoro-1-methylpiperidin-4-yl)amino)-6-((trifluoromethyl)thio)pyrrolo[1,2-a]pyrazin-7-yl)prop-2-yn-1-yl)amino)-4-(methoxy-d3)—N-methylbenzamide]",,,,,< 10 nM,,≥ 10 µM,< 750 nM,> 90%,< 750 nM,< 750 nM
COc1ccc(C(=O)N[C@H]2C[C@@H](O)C2)cc1NCC#Cc1cc2c(N[C@@H]3CCN(C)C[C@@H]3F)cccn2c1SC(F)(F)F [Example 471],,,,,< 10 nM,,≥ 10 µM,< 750 nM,> 90%,< 750 nM,< 750 nM
CNC(=O)c1ccc(O)c(NCC#Cc2cc3c(N[C@@H]4CCN(C)C[C@@H]4F)cccn3c2SC(F)(F)F)c1 [Example 472],,,,,< 10 nM,,≥ 10 µM,< 750 nM,> 90%,< 750 nM,< 750 nM
COc1ccc(C(=O)N[C@H](C)[C@@H](C)O)cc1NCC#Cc1cc2c(N[C@@H]3CCN(C)C[C@@H]3F)cccn2c1SC(F)(F)F [Example 473],,,,,< 10 nM,,≥ 10 µM,< 750 nM,> 90%,< 750 nM,< 750 nM
"COc1cc(C(=O)NC[C@H](C)O)ccc1NCC#Cc1cc2c(N[C@@H]3CCN(C)C[C@@H]3F)cccn2c1SC(F)(F)F [Example 475, 4-{[3-(8-{[(3S,4R)-3-fluoro-1-methylpiperidin-4-yl]amino}-3-[(trifluoromethyl)sulfanyl]indolizin-2-yl)prop-2-yn-1-yl]amino}-N-[(2S)-2-hydroxypropyl]-3-methoxybenzamide]",,,,,< 10 nM,,8 to 10 µM,< 750 nM,> 90%,< 750 nM,< 750 nM
"CNC(=O)c1ccc(O)c(NCC#Cc2cc3c(N[C@@H]4CCNC[C@@H]4F)cccn3c2SC(F)(F)F)c1 [Example 477, 3-{[3-(8-{[(3S,4R)-3-fluoropiperidin-4-yl]amino}-3-[(trifluoromethyl)sulfanyl]indolizin-2-yl)prop-2-yn-1-yl]amino}-4-hydroxy-N-methylbenzamide]",,,,,< 10 nM,,≥ 10 µM,< 750 nM,80 to 90%,< 750 nM,< 750 nM
